Read-outs that look alike come from different tables or passages of the source.
Tests used:
TNFα = TNFα inhibition, LPS-induced PBMCs or CD14+ monocytes, Meso Scale assay; type: cell-based; settings: LPS 100 ng/mL 18-24 h, read-out: % Inhibition compared to DMSO, TNFα; for inhibition at 1 µM: tested at 1 μM; for inhibition at 10 µM: tested at 10 μM
Method: (§1) Either frozen primary blood mononuclear cells (PBMCs) or frozen CD14+ mobilized peripheral blood monocytes were purchased from AllCells (PB003F, Normal Peripheral Blood MNC (Alameda, Calif.)). Cells were quick thawed, washed 1-time with RPMI-1640 (10% FBS/1% Pen-Strep) and plated in 96 well plates at 200,000 cells per well. Cells were pretreated with DMSO only or with the indicated compound for 1 h and then induced with 100 ng/mL lipopolysaccharide (LPS) for 18-24 h. The supernatant was analyzed for IL-1β, IL-6, and TNFα, using Meso Scale assay according to manufacturer's protocol. The negative control wells were treated with DMSO.
(§2) IL-1β, IL-6 and TNFα activities were tested at two different concentrations (1 μM and 10 μM) and the results are shown in Tables 2 and 3 respectively.

CK1α = target: T1, CK1α (Homo sapiens, UniProt P48729+Q96SW2); assay: Western blot, degradation of cellular CK1α in MV-4-11 cells; type: cell-based; settings: MV4-11, tested at 1 μM, 6-8 hours, read-out: % Degradation compared to DMSO, CK1α
T1 construct: endogenous in cells; host or cells: MV-4-11
T1 sequence (P48729 whole entry): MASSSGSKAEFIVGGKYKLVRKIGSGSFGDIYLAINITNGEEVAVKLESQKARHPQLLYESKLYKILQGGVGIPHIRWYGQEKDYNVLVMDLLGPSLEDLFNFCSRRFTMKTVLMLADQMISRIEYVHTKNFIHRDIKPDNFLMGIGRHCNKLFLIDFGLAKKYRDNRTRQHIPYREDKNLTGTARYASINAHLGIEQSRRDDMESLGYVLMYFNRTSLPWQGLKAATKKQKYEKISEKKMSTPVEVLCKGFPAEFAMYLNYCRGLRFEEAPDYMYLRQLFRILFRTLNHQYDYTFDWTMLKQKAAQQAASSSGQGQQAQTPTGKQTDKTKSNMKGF
T1 sequence (Q96SW2 whole entry): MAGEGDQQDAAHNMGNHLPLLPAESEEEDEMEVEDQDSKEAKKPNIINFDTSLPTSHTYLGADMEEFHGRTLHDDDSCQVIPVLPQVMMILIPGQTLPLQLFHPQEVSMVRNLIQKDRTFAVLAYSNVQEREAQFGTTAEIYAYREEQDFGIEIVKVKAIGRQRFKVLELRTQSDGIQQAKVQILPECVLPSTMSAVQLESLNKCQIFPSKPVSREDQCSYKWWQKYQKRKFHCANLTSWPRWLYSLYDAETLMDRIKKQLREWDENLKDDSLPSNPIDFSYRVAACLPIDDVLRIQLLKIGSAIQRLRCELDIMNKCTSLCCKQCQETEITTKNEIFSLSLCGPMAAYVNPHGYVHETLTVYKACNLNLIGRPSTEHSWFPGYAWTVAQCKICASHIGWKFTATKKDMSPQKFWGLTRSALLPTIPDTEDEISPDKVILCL
T1 sequence (Q16531 whole entry partner): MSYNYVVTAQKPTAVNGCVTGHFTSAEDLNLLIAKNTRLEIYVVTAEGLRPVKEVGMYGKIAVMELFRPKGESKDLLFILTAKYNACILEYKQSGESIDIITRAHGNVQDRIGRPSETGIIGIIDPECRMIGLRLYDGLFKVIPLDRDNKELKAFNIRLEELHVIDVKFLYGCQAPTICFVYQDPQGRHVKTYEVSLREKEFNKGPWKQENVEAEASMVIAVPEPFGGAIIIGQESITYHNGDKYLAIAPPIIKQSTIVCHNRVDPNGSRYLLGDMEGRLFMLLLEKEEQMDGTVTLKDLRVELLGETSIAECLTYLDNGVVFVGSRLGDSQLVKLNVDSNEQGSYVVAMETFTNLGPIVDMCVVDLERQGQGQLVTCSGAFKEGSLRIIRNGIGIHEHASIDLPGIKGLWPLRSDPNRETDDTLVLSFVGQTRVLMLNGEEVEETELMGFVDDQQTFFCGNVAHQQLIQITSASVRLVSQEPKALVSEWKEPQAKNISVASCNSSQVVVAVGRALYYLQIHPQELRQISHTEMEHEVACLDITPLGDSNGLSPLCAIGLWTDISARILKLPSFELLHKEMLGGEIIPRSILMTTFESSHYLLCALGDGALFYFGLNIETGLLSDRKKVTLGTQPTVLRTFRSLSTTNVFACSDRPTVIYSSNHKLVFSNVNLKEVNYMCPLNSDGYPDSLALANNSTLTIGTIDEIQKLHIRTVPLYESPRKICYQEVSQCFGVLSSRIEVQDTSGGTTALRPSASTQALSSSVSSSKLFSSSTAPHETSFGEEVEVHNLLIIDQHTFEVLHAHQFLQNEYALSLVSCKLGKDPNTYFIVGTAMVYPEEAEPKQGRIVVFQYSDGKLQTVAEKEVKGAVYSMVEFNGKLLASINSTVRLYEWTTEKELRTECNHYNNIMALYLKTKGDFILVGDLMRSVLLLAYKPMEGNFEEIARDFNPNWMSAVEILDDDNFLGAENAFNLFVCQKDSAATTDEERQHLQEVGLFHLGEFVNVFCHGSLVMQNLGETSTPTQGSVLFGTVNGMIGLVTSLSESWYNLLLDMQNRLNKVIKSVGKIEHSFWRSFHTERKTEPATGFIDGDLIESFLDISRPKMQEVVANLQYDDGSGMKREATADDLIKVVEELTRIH
Method: (§3) MV-4-11 cells were grown in RPMI 1640 media supplemented with 10% fetal bovine serum, streptomycin and penicillin.
(§4) Cells were cultured at approximately 10^6 cells per mL and incubated in DMSO or the indicated compounds for 6-8 hours. Whole cell extracts were prepared using RIPA lysis buffer according to manufacturer's protocol (Pierce). Briefly, 4×10^6 cells were washed once in PBS, the cell pellets were resuspended in RIPA lysis buffer and allowed to incubate for 15 minutes on ice. Cells debris was removed by centrifugation and the cleared whole cell lysates were transferred to new tubes for further analysis.
(§5) For Western blot analysis, whole cell protein extracts were separated on 4-12% SDS-polyacrylamide gels, transferred to nitrocellulose and probed with the indicated primary antibodies. Membranes were subsequently washed and probed with the appropriate IRDye secondary antibodies (LI-COR). The signal was detected using the Odyssey Imaging System (LI-COR).
(§6) The following antibodies were used in these studies: Anti-PDE6D antibody: Santa Cruz Biotechnology, sc-166854 (Dallas, Tex.); Anti-Ikaros: Abcam, ab191394 (Cambridge, Mass.); anti-CK1α antibody: Abcam, ab108296 (Cambridge, Mass.); β-Actin (8H10D10) mouse monoclonal antibody: Cell Signaling Technology, #3700 (Danvers, Mass.); IRDye 680RD Goat anti-rabbit antibody: LI-COR, 926-68071 (Lincoln, Nebr.); and IRDye 800CW Goat anti-mouse antibody: LI-COR, 926-32210 (Lincoln, Nebr.).
(§7) The % degradation values are reported as “A”, “B”, “C”, or “D.” “A” represents a % degradation value of less than 25% (value<25%); “B” represents a % degradation value of equal to or more than 25% and less than 50% (25%≤value<50%); “C” represents a % degradation value of equal to or more than 50% and less than 75% (50%≤value<75%); and “D” represents a % degradation value of equal to or more than 75% (value≥75%). […] was used as control.

PDE6D = target: T2, PDE6D (Homo sapiens, UniProt O43924+Q96SW2); assay: Western blot, degradation of cellular PDE6D in MV-4-11 cells; type: cell-based; settings: for Dmax at 1 µM: MV4-11, tested at 1 μM, MV-4-11 cells, 6-8 hours, read-out: % Degradation compared to DMSO, PDE6D; for % Degradation of PDE6D: comparison with comparative compound A
T2 construct: endogenous in cells; host or cells: MV-4-11
T2 sequence (O43924 whole entry): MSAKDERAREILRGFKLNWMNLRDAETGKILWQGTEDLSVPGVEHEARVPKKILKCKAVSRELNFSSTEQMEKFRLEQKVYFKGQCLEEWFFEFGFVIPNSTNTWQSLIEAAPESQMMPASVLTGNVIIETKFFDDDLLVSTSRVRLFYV
T2 sequence (Q96SW2 whole entry): as the sequence (Q96SW2 whole entry) above
T2 sequence (Q16531 whole entry partner): as the sequence (Q16531 whole entry partner) above
Method: as §3, §4, §5, §6, §7

IL-2 = IL-2 inhibition assay, anti-CD3 (OKT3) stimulated PBMCs, Mesoscale IL-2 analysis; type: cell-based, human; settings: for fold induction at 1 µM / fold induction at 10 µM: Homo sapiens, PBMC, read-out: IL-2, % Induction compared to DMSO; for fold induction at 10 µM / effect on IL-2 (in words) / IL-2, % Induction compared to DMSO: 10 μM
Method: For the IL-2 analysis, 96 well plates were precoated with 1 μg/mL anti-human CD3 antibody (OKT3, eBioscience Inc., San Diego, Calif.). After washing with PBS, the indicated compound was added (50 μL/well) followed by PBMCs diluted at 3-4 million cells/mL (150 μL/well). Plates were incubated for 24 h and the supernatants collected for Mesoscale IL-2 analysis. IL-2 activity is measured as fold difference from the DMSO control. […]
In Table 4, the fold-change values are reported as “A”, “B”, “C”, or “D”. “A” represents a fold-change value of equal to or less than 0.5 (value≤0.5); “B” represents a fold-change value of more than 0.5 and equal to or less than 1 (0.5<value≤1); “C” represents a fold-change value of more than 1 and less than 1.5 (1<value<1.5); and “D” represents a fold-change value of equal to or more than 1.5 (value≥1.5).

IL-1β = IL-1β inhibition, LPS-induced PBMCs or CD14+ monocytes, Meso Scale assay; type: cell-based; settings: LPS 100 ng/mL 18-24 h, read-out: % Inhibition compared to DMSO, IL-1β; for inhibition at 1 µM: tested at 1 μM; for inhibition at 10 µM: tested at 10 μM
Method: as §1, §2

IL-6 = IL-6 inhibition, LPS-induced PBMCs or CD14+ monocytes, Meso Scale assay; type: cell-based; settings: LPS 100 ng/mL 18-24 h, read-out: % Inhibition compared to DMSO, IL-6; for inhibition at 1 µM: tested at 1 μM; for inhibition at 10 µM: tested at 10 μM
Method: as §1, §2

Ikaros = target: T3, Ikaros (Homo sapiens, UniProt Q13422+Q96SW2); assay: Western blot, degradation of cellular Ikaros in MV-4-11 cells; type: cell-based; settings: MV4-11, tested at 1 μM, 6-8 hours, read-out: % Degradation compared to DMSO, Ikaros
T3 construct: endogenous in cells; host or cells: MV-4-11
T3 sequence (Q13422 whole entry): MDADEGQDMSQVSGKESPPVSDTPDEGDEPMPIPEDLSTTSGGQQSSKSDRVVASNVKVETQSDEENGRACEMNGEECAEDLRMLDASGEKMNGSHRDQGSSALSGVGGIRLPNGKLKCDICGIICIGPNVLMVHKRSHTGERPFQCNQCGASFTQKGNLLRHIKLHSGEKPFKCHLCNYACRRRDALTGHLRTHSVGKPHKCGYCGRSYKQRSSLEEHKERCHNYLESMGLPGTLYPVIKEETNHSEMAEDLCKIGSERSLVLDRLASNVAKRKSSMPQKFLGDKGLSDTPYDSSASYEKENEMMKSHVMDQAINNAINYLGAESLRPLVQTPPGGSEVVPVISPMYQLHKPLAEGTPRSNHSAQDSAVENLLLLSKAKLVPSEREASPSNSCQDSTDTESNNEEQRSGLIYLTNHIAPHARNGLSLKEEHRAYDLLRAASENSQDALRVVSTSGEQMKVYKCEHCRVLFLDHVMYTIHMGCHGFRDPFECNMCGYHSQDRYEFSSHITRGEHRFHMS
T3 sequence (Q96SW2 whole entry): as the sequence (Q96SW2 whole entry) above
T3 sequence (Q16531 whole entry partner): as the sequence (Q16531 whole entry partner) above
Method: as §3, §4, §5, §6, §7

[1] = PBMCs on anti-CD3, 24 h, fold difference from DMSO control
[2] = comparison with comparative compound B

Structure (SMILES) | inhibition at 1 µM (TNFα) [%] | Dmax at 1 µM (CK1α) [%] | Dmax at 1 µM (PDE6D) [%] | fold induction at 1 µM (IL-2; [1]) | inhibition at 1 µM (IL-1β) [%] | inhibition at 1 µM (IL-6) [%] | Dmax at 1 µM (Ikaros) [%] | inhibition at 10 µM (TNFα) [%] | fold induction at 10 µM (IL-2; [1]) | inhibition at 10 µM (IL-1β) [%] | inhibition at 10 µM (IL-6) [%] | % Degradation of PDE6D (PDE6D; 1 μM) | effect on IL-2 (in words) (IL-2) | IL-2, % Induction compared to DMSO (IL-2; [2]) | PDE6D degradation activity (in words) (PDE6D; 1 μM) | fold induction at 10 µM (IL-2; 24 h, comparison with comparative compound B)
CC(C)c1cc(F)cc2c1CN(C1CCC(=O)NC1=O)C2=O (centres unmarked) [Compound 34, 3-(6-fluoro-4-isopropyl-1-oxoisoindolin-2-yl)piperidine-2,6-dione] | 25 to 50 | 50 to 75 | ≥ 75 | ≤ 0.5 | < 10 | < 10 | < 25 |  |  |  |  |  |  |  |  | 
Cc1c(F)cc2c(c1C1CCCC1)CN(C1CCC(=O)NC1=O)C2=O (centres unmarked) [Compound 21, 3-(4-Cyclopentyl-6-fluoro-5-methyl-1-oxoisoindolin-2-yl) piperidine-2,6-dione] | < 10 | 25 to 50 | ≥ 75 | ≤ 0.5 | < 10 | < 10 | 25 to 50 | 25 to 50 | ≤ 0.5 | < 10 | < 10 |  |  |  |  | 
O=C1CCC(N2Cc3c(cc(F)cc3C3CCCC3)C2=O)C(=O)N1 (centres unmarked) [Compound 1] | 25 to 50 | ≥ 75 | ≥ 75 | ≤ 0.5 | 10 to 25 | < 10 | 50 to 75 | 25 to 50 | ≤ 0.5 | 25 to 50 | < 10 | D (a % degradation value of equal to or more than 75% (value≥75%)) | strong inhibition of IL-2 (downregulation) | A (a fold-change value of equal to or less than 0.5 (value≤0.5)) |  | 
C[C@@H](c1cc(F)cc2c1CN(C1CCC(=O)NC1=O)C2=O)C(F)(F)F (some centres unmarked) [Compound 22] | < 10 | ≥ 75 | ≥ 75 | ≤ 0.5 | < 10 | < 10 | < 25 | 25 to 50 | ≤ 0.5 | 10 to 25 | 10 to 25 | D (a % degradation value of equal to or more than 75% (value≥75%)) | strong inhibition of IL-2 (downregulation) | A (a fold-change value of equal to or less than 0.5 (value≤0.5)) |  | 
CC1(N2Cc3c(cc(F)cc3C3CCCC3)C2=O)CCC(=O)NC1=O (centres unmarked) [Compound 4, 3-(4-cyclopentyl-6-fluoro-1-oxoisoindolin-2-yl)-3-methylpiperidine-2,6-dione] | 25 to 50 | < 25 | < 25 | 0.5 to 1 | < 10 | < 10 | < 25 | > 50 | 0.5 to 1 | 10 to 25 | < 10 |  |  |  |  | 
O=C1CCC(N2Cc3c(cc(F)cc3C3CCOCC3)C2=O)C(=O)N1 (centres unmarked) [Compound 32] | < 10 | 25 to 50 | ≥ 75 |  | < 10 | < 10 | < 25 |  |  |  |  |  |  |  |  | 
O=C1CCC(N2Cc3c(C4CCCC4)ccc(F)c3C2=O)C(=O)N1 (centres unmarked) [Compound 27] | 10 to 25 | < 25 | < 25 | 0.5 to 1 | < 10 | 10 to 25 | < 25 | 25 to 50 | 0.5 to 1 | < 10 | < 10 |  |  |  |  | 
CC1(C)CC=C(c2cc(F)cc3c2CN(C2CCC(=O)NC2=O)C3=O)CC1 (centres unmarked) [Compound 8] | 10 to 25 | < 25 | < 25 | 0.5 to 1 | < 10 | 10 to 25 | < 25 | 25 to 50 | 0.5 to 1 | < 10 | 10 to 25 |  |  |  |  | 
O=C1CCC(N2Cc3c(cc(C(F)(F)F)cc3C3CCCC3)C2=O)C(=O)N1 (centres unmarked) [Compound 29] | < 10 | < 25 | < 25 | 0.5 to 1 | < 10 | 10 to 25 | 25 to 50 | 10 to 25 | 0.5 to 1 | < 10 | < 10 |  |  |  |  | 
Cc1cccc2c1CN(C1CCCC(=O)NC1=O)C2=O (centres unmarked) [Compound A, reference compound] |  |  |  |  |  |  |  |  |  |  |  | A (a % degradation value of less than 25% (value<25%)) |  |  | did not demonstrate any measurable PDE6D degradation activity | 
C[C@H](c1cc(F)cc2c1CN(C1CCC(=O)NC1=O)C2=O)C(F)(F)F (some centres unmarked) [Compound 23] | < 10 | 50 to 75 | 25 to 50 | 0.5 to 1 | < 10 | < 10 | < 25 | 25 to 50 | 0.5 to 1 | < 10 | < 10 |  |  |  |  | 
CCC(C)c1cc(F)cc2c1CN(C1CCC(=O)NC1=O)C2=O (centres unmarked) [Compound 33, 3-(4-(sec-butyl)-6-fluoro-1-oxoisoindolin-2-yl)piperidine-2,6-dione] | 25 to 50 | ≥ 75 | ≥ 75 | ≤ 0.5 | < 10 | < 10 | < 25 |  |  |  |  |  |  |  |  | 
Cc1cccc2c1CN(C1CCC(=O)NC1=O)C2=O (centres unmarked) [Compound B, reference compound] |  |  |  |  |  |  |  |  |  |  |  |  | induced IL-2 (upregulation) |  |  | ≥ 1.5
O=C1CCC(N2Cc3c(cc(F)cc3C(F)F)C2=O)C(=O)N1 (centres unmarked) [Compound 17, 3-(4-(Difluoromethyl)-6-fluoro-1-oxoisoindolin-2-yl) piperidine-2,6-dione] | 25 to 50 |  | 50 to 75 | 0.5 to 1 | < 10 | < 10 | ≥ 75 | 25 to 50 | 0.5 to 1 | 10 to 25 | < 10 |  |  |  |  | 

Source: patent US11352338B2, “Substituted isoindolinones” (BioTheryX, Inc., priority 2018, dated 2022)
